# According to patent US20120308537A1, “Use Of Collagen Type VII For Maintaining And Re-Inducing Osteogenic Abilities Of Mesenchymal Stem Cells” (UNIVERSITY OF SOUTHERN CALIFORNIA, priority 2009, published 2012):
# Key:
# [1] = system: ALP, Runx2, BSP, OCN mRNA in MSCs; test: Real-Time PCR analysis of osteogenic-specific gene expression in MSCs; type: cell-based, human
# Experimental: In this experiment, MSCs were cultured in 6-well plates in growth medium until they reached confluence. Then, they were switched to osteogenic medium. Respective wells were treated with 1.0 μg/ml C7 until the indicated harvest days. Equal amounts of RNA were reverse transcribed and the mRNA levels of the indicated genes were analyzed using SYBR green master mix and primers for alkaline phosphotase (ALP), Runx2, bone sialoprotein (BSP), and osteocalcin (OCN). Data were normalized to house keeping gene GAPDH and expressed as fold-changes relative to 7D untreated cells. Results represent the mean+/−standard deviation of duplicate experiments with PCR performed in triplicates.
# (§1) FIG. 9A is a scanned image of Alizarin staining (left) and its quantification (right). Here the MSCs were treated with 1.0 μg/ml C7 or 1.0 μg/ml C7 and 15 μM U0126 in the presence of an osteogenic medium for 21 days. In FIG. 9B, MSCs were cultured as in FIG. 9A. RNAs were collected after 14 days and subjected to RT-PCR analysis for early osteogenic gene markers. Results for staining represent mean values+/−standard deviation from experiments performed in quadruplicate. RT-PCR results represented the mean+/−standard deviation of duplicate experiments with PCR performed in triplicates. The […] inhibitor abolished C7-induced calcium deposition and expression of early osteogenic gene markers.
# human MSCs [2] = test: Alizarin red (AR) staining of MSCs in osteogenic medium (calcium accumulation and mineralization); type: cell-based
# Experimental: Alizarin red (AR) staining is normally used to determine the calcium accumulation and mineralization that are associated with bone formation. Cells in the tissue culture dishes labeled C7 were incubated with osteogenic induction medium containing 1.0 μg/ml of C7. Cells in the tissue culture dishes labelled OST were incubated with osteogenic induction medium alone (controls).
# FIG. 3A is the scanned image of Alizarin red staining (top) and its quantification (bottom).
# FIG. 3B is the scanned image of Alizarin red staining (top) and its quantification (bottom). […] The results represent mean values+/−standard deviation from experiments performed in triplicates. Note that MSCs only need to be exposed to 0.6 μg/ml of C7 during days 8-12 to attain optimal osteogenic induction.
# For these experiments, plated MSCs were plated at 3×10^5/per well on 6-well plates in MSC growth medium containing α-MEM containing 16.7% Premium FBS (Atlanta Biologicals Cat# S11550), and 2 mM L-Glutamine. After the cells reached 70% confluency, the medium was changed to osteogenic induction medium with or without 0.6 μg/ml C7 added at the time period indicated above.
# Here the MSCs were treated with 4 μg/ml of NC1 for 21 days in an osteogenic medium. Results represent mean values+/−standard deviation from experiments performed in triplicates.
# as §1
# [3] = system: p-ERK (Ras-ERK signaling pathway); test: Immunoblot analysis of ERK phosphorylation in MSCs under osteogenic conditions; type: cell-based, human
# Experimental: (§2) In this experiment, cells were serum starved for 48 hours and then stimulated with osteogenic medium in the absence or presence of 1.0 μg/ml C7. Cellular extracts were prepared at the times indicated and then subjected to immunoblot analysis with antibodies shown above. Total ERK and paxillin are included to indicate equal protein loading.
# In this experiment, cells were pretreated with the respective inhibitor for 1 hour before addition of 1.0 μg/ml C7. Regular ERK is included as a control for equal protein loading.
# MSCs = test: Inducing and maintaining the osteogenicity of MSCs by C7 fragments (general statement); type: cell-based; conditions: fragments of C7 containing the CMP subdomain
# human MSCs [4] = test: Alkaline phosphotase (ALP) staining of MSCs in osteogenic medium; type: cell-based; conditions: 1.0 μg/ml C7, 14 days in osteogenic medium, vs osteogenic medium alone
# Experimental: ALP measures the expression of a key marker enzyme that is needed for bone formation. The tissue culture dishes labeled C7 were treated with 1.0 μg/ml C7 whereas dishes label OST were the controls. The cells were incubated in an osteogenic medium for 14 days.
# late passage MSCs = test: Alizarin red staining of late passage MSCs (exogenous C7 or lentiviral C7 over-expression); type: cell-based, human
# Experimental: FIG. 5A is the scanned image of Alizarin red staining (top) and its quantification (bottom). Late passage MSCs (passage 8) were treated with 1.0 μg/ml of C7 in the presence of an osteogenic medium for 21 days.
# FIG. 5B is the scanned image of Alizarin red staining (top) and its quantification (bottom). Late passage MSCs infected with lentiviral vectors expressing either green fluorescence protein (GFP) or C7 were subjected to osteogenic medium for 21 days. Results represent mean values+/−standard deviation from experiments performed in triplicates.
# For these experiments, MSCs from passage 3 were infected with lentiviral vectors expressing either GFP or C7 and cultured for an additional 7 passages. Then infected MSCs (passage 10) were plated at 6 well-plates and then subjected to osteogenic induction medium.
# [5] = system: ectopic osteogenesis induction; test: Histology analysis of ectopic osteogenesis induction (bone formation), intramuscular implantation in rat; type: in vivo; conditions: 4 weeks
# Experimental: (§3) The negative control was carrier only, which consisted of collagen sponge (bovine). The samples were administered to rat via intramuscular implantation on ectopic sites. The experiment lasted for 4 weeks. Two different preparations (C7 and C7′) were tested. The test dosages were: 10, 20 and 40 μg. The results were analyzed by alkaline phosphotase assay (ALP) and histology for bone formation.
# p-P38 = test: Immunoblot analysis of P38 phosphorylation in MSCs under osteogenic conditions; type: cell-based, human; conditions: 1.0 μg/ml C7; serum starved 48 hours
# Experimental: as §2
# [6] = system: ectopic osteogenesis induction; test: ALP assay of ectopic osteogenesis induction, intramuscular implantation in rat; type: in vivo; conditions: 4 weeks
# Experimental: as §3
# [7] = 1.0 μg/ml C7 and 15 μM U0126, 14 days
# [8] = 1.0 μg/ml C7, normalized to GAPDH
compound,measurement,setting,value
"N#CC(=C(/N)Sc1ccccc1N)/C(C#N)=C(\N)Sc1ccccc1N [U0126, reference compound]",mRNA expression of ALP in C7-treated MSCs,[1]; [7],reduced
same,mRNA expression of BSP in C7-treated MSCs,[1]; [7],reduced
same,AR staining of C7-treated MSCs (C7-mediated osteogenic induction),"human MSCs [2]; 1.0 μg/ml C7 and 15 μM U0126, 21 days",reduced
same,effect of inhibitor on C7-mediated induction of p-ERK,"[3]; pretreated with inhibitor 1 hour before 1.0 μg/ml C7, proteins collected after 1 hour",Abrogated
type VII collagen [C7],ALP mRNA expression (early osteogenic marker),[1]; [8],upregulates
same,BSP mRNA expression (early osteogenic marker),[1]; [8],upregulates
same,OCN mRNA expression (late osteogenic marker),[1]; [8],upregulates
same,Runx2 mRNA expression (early osteogenic marker),[1]; [8],upregulates
same,effectiveness in inducing and maintaining the osteogenicity of MSCs,MSCs,relatively effective
same,osteogenic potential of human MSCs as measured by ALP activity,human MSCs [4],significantly enhances
same,restoring osteogenic potential of late passage MSCs (Alizarin red),"late passage MSCs; exogenous addition, 1.0 μg/ml C7, passage 8, 21 days",capable of restoring
same,restoring osteogenic potential of late passage MSCs (Alizarin red),"late passage MSCs; over-expression by lentiviral vector vs GFP, passage 10, 21 days",capable of restoring
same,Bone score,[5]; 10 ug C7 or C7′ + 1 ug BMP-2,3
same,Bone score,"[5]; 10 ug C7 or C7′, no BMP-2",0
same,Bone score,[5]; 20 ug C7 or C7′ + 1 ug BMP-2,0
same,Bone score,"[5]; 20 ug C7 or C7′, no BMP-2",0
same,Bone score,"[5]; 40 ug C7 or C7′, no BMP-2",0
same,BMP-2-mediated bone induction (ALP assay and histology),"[5]; low dosage 10 μg with BMP-2, rat intramuscular implantation",significantly enhance
same,level of p-P38,p-P38,remained unchanged
same,osteogenic potential of human MSCs as measured by Alizarin red activity,"human MSCs [2]; 1.0 μg/ml C7, 21 days in osteogenic medium, vs osteogenic medium alone",significantly enhances
same,concentration needed to attain optimal osteogenic induction,"human MSCs [2]; exposure during days 8-12 only, osteogenic medium 21 days",0.6 µg/mL
same,production of p-ERK,"[3]; 1.0 μg/ml C7, as early as 10 minutes, sustained up to 1 hour, serum starved 48 hours",increased
same,ALP,[6]; 10 ug C7 or C7′ + 1 ug BMP-2,0.257
same,ALP/Pro,[6]; 10 ug C7 or C7′ + 1 ug BMP-2,2.360
same,ALP/Pro,"[6]; 10 ug C7 or C7′, no BMP-2",0.517
same,ALP,"[6]; 10 ug C7 or C7′, no BMP-2, collagen sponge, intramuscular ectopic site",0.094
same,ALP,[6]; 20 ug C7 or C7′ + 1 ug BMP-2,0.384
same,ALP/Pro,[6]; 20 ug C7 or C7′ + 1 ug BMP-2,1.893
same,ALP,"[6]; 20 ug C7 or C7′, no BMP-2",0.094
same,ALP/Pro,"[6]; 20 ug C7 or C7′, no BMP-2",0.500
same,ALP,"[6]; 40 ug C7 or C7′, no BMP-2",0.092
same,ALP/Pro,"[6]; 40 ug C7 or C7′, no BMP-2",0.364
